What was measured:
[1] = Lipid oxidation in linoleic acid model system, ferric thiocyanate (FTC) method; details: positive control 0.2 mg/mL; after four days incubation at 40 °C; 500 nm; mean of three independent experiments
Experimental: The inhibition of lipid peroxidation by the EYPH fractions was measured using linoleic acid oxidized as described below. The degree of oxidation was measured using (FTC) and (TBARS) methods. In order to prepare the reaction mixture, 50 mg of each sample was dissolved individually with 10 mL absolute ethanol, 0.13 mL linoleic acid, 4.87 mL distilled water and 10 mL 50 mM sodium phosphate buffer (pH 7). Samples were homogenized by a sonicator (Labsonic® M, B. Braun Biotech International, Melsungen, Germany). The tubes were then sealed tightly with silicone rubber caps and kept in the dark at 40 °C in an oven. […] A negative control was prepared in the same manner using distilled water in place of egg yolk hydrolysates. […] After exactly 3 min, the absorbance of the resulting ferric thiocyanate solution was read at 500 nm using a spectrophotometer (Kontron Instrument UNIKON 860, Cambridge, UK). […] The absorbance of the upper layer was measured at 532 nm using a spectrophotometer (Kontron Instrument UNIKON 860) Malonaldehyde standard curve was prepared using 1,1,3,3-tetramethoxypropane and TBARS were expressed as μg of malonaldehyde/mL. The percentage (%) of lipid oxidation inhibition was calculated according to the following formula: Lipid oxidation inhibition (%)=Absorbance of control − Absorbance of sample/Absorbance of control×100

[2] = Lipid oxidation in linoleic acid model system, TBARS method; details: positive control 0.2 mg/mL; after four days incubation at 40 °C; 532 nm; mean of three independent experiments
Experimental: The inhibition of lipid peroxidation by the EYPH fractions was measured using linoleic acid oxidized as described below. The degree of oxidation was measured using (FTC) and (TBARS) methods. In order to prepare the reaction mixture, 50 mg of each sample was dissolved individually with 10 mL absolute ethanol, 0.13 mL linoleic acid, 4.87 mL distilled water and 10 mL 50 mM sodium phosphate buffer (pH 7). Samples were homogenized by a sonicator (Labsonic® M, B. Braun Biotech International, Melsungen, Germany). The tubes were then sealed tightly with silicone rubber caps and kept in the dark at 40 °C in an oven. […] A negative control was prepared in the same manner using distilled water in place of egg yolk hydrolysates. The commercial antioxidants, 0.2 mg/mL of BHT and trolox were also used as positive controls. […] The absorbance of the upper layer was measured at 532 nm using a spectrophotometer (Kontron Instrument UNIKON 860) Malonaldehyde standard curve was prepared using 1,1,3,3-tetramethoxypropane and TBARS were expressed as μg of malonaldehyde/mL. The percentage (%) of lipid oxidation inhibition was calculated according to the following formula: Lipid oxidation inhibition (%)=Absorbance of control − Absorbance of sample/Absorbance of control×100

[3] = DPPH radical scavenging activity; details: for DPPH Scavenging activity: standard 0.2 mg/mL, 60 min, room temperature, dark, 517 nm, mean ± SD of three independent experiments; for Antioxidant activity (DPPH scavenging) of peptide compared with synthetic antioxidant: peptide 10 mg/mL versus 0.2 mg/mL BHT (Figure 7), abstract prints BHA
Experimental: The method used was in accordance with Bersuder et al. using the synthetic free radical DPPH. Briefly, a volume of 500 μL of selected fractions at different concentrations (0.5, 1, 5, 10 and 20 mg/mL) was mixed with 500 μL of 99.5% ethanol and 125 μL of 0.02% w/v DPPH prepared previously in 99.5% ethanol. The mixture was shaken vigorously then kept at room temperature in the dark. After 60 min, the color reduction of the DPPH substrate was measured at an absorbance of 517 nm. Trolox and BHT (both used at concentration 0.2 mg/mL) were also tested as positive controls for comparison. The DPPH radical scavenging activity was calculated as follows: Radical scavenging activity (%)=AC−AS/AC×100 where AC is the absorbance for negative control using 500 μL deionized water instead of sample, AS is the absorbance of the sample or positive controls (trolox/BHT). A lower absorbance of the reaction mixture indicated a higher DPPH radical-scavenging activity.

[4] = Hydroxyl radical scavenging activity (HRSA) assay; details: standard 0.2 mg/mL, 37 °C 1 h, pH 7.4, 532 nm, mean ± SD of three independent experiments
Experimental: The HRSA assay was performed as described by Wu et al.. The reaction mixture consisted of 0.1 mL of 10 mM FeSO4, 0.1 mL of 10 mM EDTA, 0.5 mL of 10 mM α-deoxyribose, 0.9 mL sodium phosphate buffer pH 7.4, and 0.2 mL of peptides at different concentrations (0.5, 1, 5, 10 and 20 mg/mL). All reagents were then thoroughly mixed in a tube and 0.2 mL of 10 mM hydrogen peroxide was added. The reaction mixture was then incubated at 37 °C for 1 h. Following incubation, 1 mL of 2.8% TCA and 1 mL of 1.0% TBA were added to the test tubes, and the contents boiled for 15 min. After cooling at room temperature, the absorbance of the mixture was measured at 532 nm. Trolox and BHT (both used at concentration 0.2 mg/mL) were also tested as positive controls for comparison. The HRSA was evaluated as a percentage of α-deoxyribose oxidation inhibition by the hydroxyl radical and calculated as follows: HRSA (%)=AC−AS/AC×100 where AC is the absorbance for negative control using 500 μL deionized water instead of sample, AS is the absorbance of the sample or positive controls (trolox/BHT).

[5] = Superoxide anion scavenging activity (pyrogallol autoxidation); details: standard 0.2 mg/mL, Tris-HCl pH 8.2, 25 °C, 320 nm, mean ± SD of three independent experiments
Experimental: In this assay, the alkaline condition enhances the autoxidation of pyrogallol to produce a superoxide anion, which, in turn, accelerates the autoxidation process by autocatalysis. The autoxidation of a pyrogallol method described by Marklund and Marklund was applied to measure the superoxide anion scavenging power of egg yolk peptides. The reaction mixture consisted of 1.0 mL of peptides sample at different concentrations ([…], 5.0, 10 and 20 mg/mL) and 1.8 mL of 50 mM Tris-HCl buffer, previously adjusted to pH 8.2. The mixture was incubated at 25 °C for 20 min. Then, 40 μL of 45 mM pyrogallol (prepared previously in 10 mM HCl) was added. The absorbance of the reaction mixture was measured at 320 nm immediately after adding pyrogallol at 1 min intervals up to 4 min. Trolox and BHT (both used at a concentration of 0.2 mg/mL) were also tested as positive controls for comparison.

[6] = Ferrous chelating activity assay (ferrozine); details: EDTA 0.2 mg/mL, 10 min room temperature, 563 nm, mean ± SD of three independent experiments
Experimental: The activity of the peptide to chelate ferrous Fe^2+ ions was measured according to the method of Ebrahimzadeh et al.. The reaction mixture contained 0.5 mL of isolated peptides at different concentrations (0.5, 1, 5, 10 and 20 mg/mL), 1.6 mL deionized water and 0.05 mL of 2 mM FeCl2. After 30 s, 0.1 mL of 5 mM ferrozine was added. After 10 min at room temperature, the absorbance of the Fe^2+-ferrozine complex was measured at 563 nm. EDTA (0.2 mg/mL) was also tested as a positive control for comparison. The activity of the peptide to chelate Fe^2+ was calculated as: Chelating ability (%) =AC−AS/AC×100 where AC is the absorbance of the control, using 0.5 mL deionized water instead of sample, AS is the absorbance of the sample or positive control EDTA.

[7] = target: angiotensin converting enzyme (ACE) (Homo sapiens, UniProt P12821); test: ACE inhibitory activity by HPLC (HHL substrate, hippuric acid at 228 nm); details: peptide 10 mg/mL versus captopril 0.5 mg/mL, Dunnett's test, p < 0.05, Figure 8
Sequence of angiotensin converting enzyme (ACE) (P12821 30-1306, species assumed): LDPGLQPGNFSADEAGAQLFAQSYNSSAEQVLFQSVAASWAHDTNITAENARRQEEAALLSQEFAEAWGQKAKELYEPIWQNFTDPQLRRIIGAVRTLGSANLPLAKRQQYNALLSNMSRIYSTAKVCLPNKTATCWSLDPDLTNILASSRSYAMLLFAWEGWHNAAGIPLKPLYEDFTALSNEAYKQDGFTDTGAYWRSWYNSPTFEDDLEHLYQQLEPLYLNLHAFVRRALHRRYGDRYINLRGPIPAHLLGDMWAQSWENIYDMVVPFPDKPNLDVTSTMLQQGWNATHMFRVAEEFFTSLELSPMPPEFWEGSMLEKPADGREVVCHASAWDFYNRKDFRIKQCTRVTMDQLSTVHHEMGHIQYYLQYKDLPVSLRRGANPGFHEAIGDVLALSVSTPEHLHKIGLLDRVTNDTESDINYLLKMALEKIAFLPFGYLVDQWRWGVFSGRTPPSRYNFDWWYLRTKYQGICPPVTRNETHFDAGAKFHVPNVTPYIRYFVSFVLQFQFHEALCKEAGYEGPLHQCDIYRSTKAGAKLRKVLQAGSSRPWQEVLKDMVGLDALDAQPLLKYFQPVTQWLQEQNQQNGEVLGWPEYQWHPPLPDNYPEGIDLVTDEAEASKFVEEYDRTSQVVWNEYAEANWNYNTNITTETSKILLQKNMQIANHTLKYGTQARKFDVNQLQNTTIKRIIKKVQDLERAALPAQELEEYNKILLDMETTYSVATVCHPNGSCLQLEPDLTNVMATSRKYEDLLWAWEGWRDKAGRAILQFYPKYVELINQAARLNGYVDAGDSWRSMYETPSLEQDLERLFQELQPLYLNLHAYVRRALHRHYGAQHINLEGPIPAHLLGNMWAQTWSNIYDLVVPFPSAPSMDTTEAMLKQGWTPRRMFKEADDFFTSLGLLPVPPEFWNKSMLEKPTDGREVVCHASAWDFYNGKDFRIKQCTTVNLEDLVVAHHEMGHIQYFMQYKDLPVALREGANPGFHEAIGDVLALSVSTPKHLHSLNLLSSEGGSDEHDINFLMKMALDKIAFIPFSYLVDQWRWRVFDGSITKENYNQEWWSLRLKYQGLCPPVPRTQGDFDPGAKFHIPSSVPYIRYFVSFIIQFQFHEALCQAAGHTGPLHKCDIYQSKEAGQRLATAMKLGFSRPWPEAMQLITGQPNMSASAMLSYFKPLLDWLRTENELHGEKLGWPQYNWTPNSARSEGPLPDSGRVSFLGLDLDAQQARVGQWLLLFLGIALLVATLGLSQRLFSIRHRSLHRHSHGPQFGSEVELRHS
Experimental: The measurement of ACE inhibitory activity was conducted using HPLC in accordance with a modified method of Wu et al. [53]. All samples were prepared with 100 mM borate buffer, containing 300 mM NaCl at pH = 8.3. […] The peptide fractions and HHL were mixed and maintained at 37 °C for 10 min in 2 mL polyethylene microcentrifuge tubes. ACE was maintained at 37 °C for 10 min before the two solutions were combined. The combined mixture was incubated at 37 °C for 30 min with continuous agitation. In order to terminate the reaction, 85 μL of 1 M HCl was added. Samples were analyzed on a C18 column (3.0 mm × 150 mm, 5 μm, phenomenex) and hippuric acid (HA) and HHL were detected at 228 nm using HPLC system (Ultimate 3000 HPLC, Thermo Fisher Scientific Inc., Loughborough, UK). Data were analyzed using integration software (Chromeleon, Thermo Fisher Scientific Inc., Loughborough, UK).

Compound: Cc1cc(C(C)(C)C)c(O)c(C(C)(C)C)c1 [BHT, butylated hydroxyltoluene]
- Lipid Oxidation (%), FTC method [1]: 23.3%
- Lipid Oxidation (%), TBARS method [2]: 26.1%
- DPPH Scavenging activity [3]: 23.6%
- DPPH Scavenging activity ([3]; SD): 23.60% ± 1.66%
- Hydroxyl radical scavenging activity [4]: 58.97% ± 1.02%
- Superoxide anion scavenging activity [5]: 67.45% ± 1.67%

Compound: O=C(O)CN(CCN(CC(=O)O)CC(=O)O)CC(=O)O [EDTA]
- Fe2+ chelating activity [6]: 97.54% ± 1.79%

Compound: Cc1c(C)c2c(c(C)c1O)CCC(C)(C(=O)O)O2 (centres unmarked) [Trolox, trolox]
- Lipid Oxidation (%), FTC method [1]: 32.2%
- Lipid Oxidation (%), TBARS method [2]: 28.7%
- DPPH Scavenging activity [3]: 38.5%
- DPPH Scavenging activity ([3]; SD): 38.46% ± 1.43%
- Hydroxyl radical scavenging activity [4]: 70.03% ± 3.48%
- Superoxide anion scavenging activity [5]: 63.48% ± 1.63%

Compound: KLSDW
- Antioxidant activity (DPPH scavenging) of peptide compared with synthetic antioxidant [3]: not significantly different from the synthetic BHA antioxidant

Compound: SDNRNQGY
- ACE inhibitory activity of synthesized peptide compared with captopril [7]: not significantly different from that of the positive control captopril

Compound: WYGPD
- Antioxidant activity (DPPH scavenging) of peptide compared with synthetic antioxidant [3]: not significantly different from the synthetic BHA antioxidant

Compound: YPSPV
- ACE inhibitory activity of synthesized peptide compared with captopril [7]: higher ACE inhibitory activity compared with captopril
